Experimental data: US20230150986A1, “ANTAGONISTS OF THE MUSCARINIC ACETYLCHOLINE RECEPTOR M4” (Vanderbilt University, priority 2019, published 2023)

Target: T1, Human M4 (Homo sapiens, UniProt P08173)
T1 construct: Human or rat M4 cDNA, along with the chimeric G protein Gq,5, were transfected into Chinese hamster ovary (CHO-K1) cells; expressed in transfected cells; host or cells: CHO-K1 (M4/Gqi5/CHO)
T1 sequence (P08173 1-479): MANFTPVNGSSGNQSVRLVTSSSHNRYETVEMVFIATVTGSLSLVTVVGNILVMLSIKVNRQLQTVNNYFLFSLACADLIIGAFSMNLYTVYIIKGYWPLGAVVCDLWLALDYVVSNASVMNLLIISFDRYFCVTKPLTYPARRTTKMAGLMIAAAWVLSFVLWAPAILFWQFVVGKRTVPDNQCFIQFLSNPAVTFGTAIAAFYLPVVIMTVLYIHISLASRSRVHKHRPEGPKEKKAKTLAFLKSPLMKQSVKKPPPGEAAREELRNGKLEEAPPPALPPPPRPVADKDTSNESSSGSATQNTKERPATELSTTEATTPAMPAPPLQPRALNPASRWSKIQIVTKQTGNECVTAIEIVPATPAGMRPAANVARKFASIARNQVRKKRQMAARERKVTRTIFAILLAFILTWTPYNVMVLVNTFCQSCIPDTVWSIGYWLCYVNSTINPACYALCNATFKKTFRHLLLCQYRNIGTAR
Assay: mAChR M4 cell-based functional assay (calcium flux, decrease of EC80 acetylcholine response)
Conditions: for Human M4 Emin: % ACh maximum at 30 μM; for IC50: CHO-K1 cells with human M4 and Gqi5, EC80 acetylcholine
Summary of the method: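 CHO-K1 cells stably co-expressing M4 with chimeric Gqi5, loaded with Fluo-4 AM for 50 min at 37 °C; compounds added as 10-point 1:3 curves, then acetylcholine at EC20 (143 s) and EC80 (268 s). Calcium read by FDSS fluorescence ratio; IC50 from four-parameter fit of decrease in EC80 acetylcholine response.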

SMILES	Human M4 Emin [%]	IC50 [nM]
Fc1ccc(OCCN2C[C@H]3C[C@H](Nc4ccc(-c5cc(F)cc(F)c5F)nn4)C[C@H]3C2)cc1 [Compound 58, (3aR,5s,6aS)-2-(2-(4-fluorophenoxy)ethyl)-N-(6-(2,3,5-trifluorophenyl)pyridazin-3-yl)octahydrocyclopenta[c]pyrrol-5-amine]	4	170
COc1ccc(OCCN2C[C@H]3C[C@H](Nc4ccc(-c5cc(F)cc(F)c5F)nn4)C[C@H]3C2)cc1 [Compound 59, (3aR,5s,6aS)-2-(2-(4-methoxyphenoxy)ethyl)-N-(6-(2,3,5-trifluorophenyl)pyridazin-3-yl)octahydrocyclopenta[c]pyrrol-5-amine]	2	60
Fc1cc(F)c(F)c(-c2ccc(N[C@H]3C[C@@H]4CN(CCC(F)(F)F)C[C@@H]4C3)nn2)c1 [Compound 60, (3aR,5s,6aS)-N-(6-(2,3,5-trifluorophenyl)pyridazin-3-yl)-2-(3,3,3-trifluoropropyl)octahydrocyclopenta[c]pyrrol-5-amine]	13	810
OC1(CN2C[C@H]3C[C@H](Nc4ccc(-c5cc(F)cc(F)c5F)nn4)C[C@H]3C2)CCCC1 [Compound 61, 1-(((3aR,5s,6aS)-5-((6-(2,3,5-trifluorophenyl)pyridazin-3-yl)amino)hexahydrocyclopenta[c]pyrrol-2(1H)-yl)methyl)cyclopentan-1-ol]	2	2.3
OC1(CN2C[C@H]3C[C@H](Nc4ccc(-c5cc(F)cc(F)c5F)nn4)C[C@H]3C2)CCCCCC1 [Compound 62]	3	3300
OC1(CN2C[C@H]3C[C@H](Nc4ccc(-c5cc(F)cc(F)c5F)nn4)C[C@H]3C2)C2CC3CC(C2)CC1C3 (stereo partly drawn) [Compound 63, 2-(((3aR,5s,6aS)-5-((6-(2,3,5-trifluorophenyl)pyridazin-3-yl)amino)hexahydrocyclopenta[c]pyrrol-2(1H)-yl)methyl)adamantan-2-ol]	3	78
CC(C)C(O)CN1C[C@H]2C[C@H](Nc3ccc(-c4cc(F)cc(F)c4F)nn3)C[C@H]2C1 (stereo partly drawn) [Compound 64, 3-methyl-1-((3aR,5s,6aS)-5-((6-(2,3,5-trifluorophenyl)pyridazin-3-yl)amino)hexahydrocyclopenta[c]pyrrol-2(1H)-yl)butan-2-ol]	5	7.3
OC1CCCCC1N1C[C@H]2C[C@H](Nc3ccc(-c4cc(F)cc(F)c4F)nn3)C[C@H]2C1 (stereo partly drawn) [Compound 65, 2-((3aR,5s,6aS)-5-((6-(2,3,5-trifluorophenyl)pyridazin-3-yl)amino)hexahydrocyclopenta[c]pyrrol-2(1H)-yl)cyclohexan-1-ol]	6	350
[2H]C([2H])([C@@H]1CCCOC1)N1C[C@H]2C[C@H](Nc3ccc(-c4cc(F)cc(F)c4F)nn3)C[C@H]2C1 [Compound 66, (3aR,5s,6aS)-2-(((S)-tetrahydro-2H-pyran-3-yl)methyl-d2)-N-(6-(2,3,5-trifluorophenyl)pyridazin-3-yl)octahydrocyclopenta[c]pyrrol-5-amine]	3	12
Fc1cc(F)c(F)c(-c2ccc(N[C@H]3C[C@@H]4CN(CC5CCSCC5)C[C@@H]4C3)nn2)c1 [Compound 67, (3aR,5s,6aS)-2-((tetrahydro-2H-thiopyran-4-yl)methyl)-N-(6-(2,3,5-trifluorophenyl)pyridazin-3-yl)octahydrocyclopenta[c]pyrrol-5-amine]	3	4
[2H]C1([2H])[C@H](Nc2ccc(-c3cc(F)cc(F)c3F)nn2)C([2H])([2H])[C@H]2CN(CC3CCOCC3)C[C@H]21 [Compound 70]	3	4.4
CCOCCN1C[C@H]2C[C@H](Nc3ccc(-c4cc(F)cc(F)c4F)nn3)C[C@H]2C1 [Compound 74, (3aR,5s,6aS)-2-(2-ethoxyethyl)-N-(6-(2,3,5-trifluorophenyl)pyridazin-3-yl)octahydrocyclopenta[c]pyrrol-5-amine]	4	210
COCCCN1C[C@H]2C[C@H](Nc3ccc(-c4cc(F)cc(F)c4F)nn3)C[C@H]2C1 [Compound 75, (3aR,5s,6aS)-2-(3-methoxypropyl)-N-(6-(2,3,5-trifluorophenyl)pyridazin-3-yl)octahydrocyclopenta[c]pyrrol-5-amine]	4	79
[2H]C([2H])(COCC)N1C[C@H]2C[C@H](Nc3ccc(-c4cc(F)cc(F)c4F)nn3)C[C@H]2C1 [Compound 79, (3aR,5s,6aS)-2-(2-ethoxyethyl-1,1-d2)-N-(6-(2,3,5-trifluorophenyl)pyridazin-3-yl)octahydrocyclopenta[c]pyrrol-5-amine]	5	120
[2H]C([2H])(CCOC)N1C[C@H]2C[C@H](Nc3ccc(-c4cc(F)cc(F)c4F)nn3)C[C@H]2C1 [Compound 80, (3aR,5s,6aS)-2-(3-methoxypropyl-1,1-d2)-N-(6-(2,3,5-trifluorophenyl)pyridazin-3-yl)octahydrocyclopenta[c]pyrrol-5-amine]	8	4500
[2H]C([2H])(C1CCOCC1)N1C[C@H]2C[C@H](Nc3ccc(-c4cc(F)cc(F)c4F)nn3)C[C@H]2C1 [Compound 81, (3aR,5s,6aS)-2-((tetrahydro-2H-pyran-4-yl)methyl-d2)-N-(6-(2,3,5-trifluorophenyl)pyridazin-3-yl)octahydrocyclopenta[c]pyrrol-5-amine]	3	6.7

Compounds with a lower IC50, results first:

Human M4 Emin [%]	IC50 [nM]	SMILES
3	0.36	Fc1cc(F)c(F)c(-c2ccc(N[C@H]3C[C@@H]4CN(CC5CC6(COC6)C5)C[C@@H]4C3)nn2)c1 [Compound 68, (3aR,5s,6aS)-2-((2-oxaspiro[3.3]heptan-6-yl)methyl)-N-(6-(2,3,5-trifluorophenyl)pyridazin-3-yl)octahydrocyclopenta[c]pyrrol-5-amine]
3	0.9	O=S1(=O)CCC(CN2C[C@H]3C[C@H](Nc4ccc(-c5cc(F)cc(F)c5F)nn4)C[C@H]3C2)CC1 [Compound 69, 4-(((3aR,5s,6aS)-5-((6-(2,3,5-trifluorophenyl)pyridazin-3-yl)amino)hexahydrocyclopenta[c]pyrrol-2(1H)-yl)methyl)tetrahydro-2H-thiopyran 1,1-dioxide]
3	0.47	Fc1cc(F)c(F)c(-c2ccc(N[C@H]3C[C@@H]4CN(C[C@H]5[C@@H]6COC[C@@H]65)C[C@@H]4C3)nn2)c1 [Compound 71, (3aR,5s,6aS)-2-(((1R,58,6s)-3-oxabicyclo[3.1.0]hexan-6-yl)methyl)-N-(6-(2,3,5-trifluorophenyl)pyridazin-3-yl)octahydrocyclopenta[c]pyrrol-5-amine]
3	2.1	Fc1cc(F)c(F)c(-c2ccc(N[C@H]3C[C@@H]4CN(CC5CC56CCOCC6)C[C@@H]4C3)nn2)c1 (stereo partly drawn) [Compound 72, (3aR,5s,6aS)-2-((6-oxaspiro[2.5]octan-1-yl)methyl)-N-(6-(2,3,5-trifluorophenyl)pyridazin-3-yl)octahydrocyclopenta[c]pyrrol-5-amine]
3	0.82	Fc1cc(F)c(F)c(-c2ccc(N[C@H]3C[C@@H]4CN(CC5CCCOCC5)C[C@@H]4C3)nn2)c1 (stereo partly drawn) [Compound 73, (3aR,5s,6aS)-2-(oxepan-4-ylmethyl)-N-(6-(2,3,5-trifluorophenyl)pyridazin-3-yl)octahydrocyclopenta[c]pyrrol-5-amine]
3	0.59	[2H]C([2H])([C@H]1[C@@H]2COC[C@@H]21)N1C[C@H]2C[C@H](Nc3ccc(-c4cc(F)cc(F)c4F)nn3)C[C@H]2C1 [Compound 76, (3aR,5s,6aS)-2-(((1R,58,6s)-3-oxabicyclo[3.1.0]hexan-6-yl)methyl-d2)-N-(6-(2,3,5-trifluorophenyl)pyridazin-3-yl)octahydrocyclopenta[c]pyrrol-5-amine]
3	2.1	[2H]C([2H])([C@@H]1CC12CCOCC2)N1C[C@H]2C[C@H](Nc3ccc(-c4cc(F)cc(F)c4F)nn3)C[C@H]2C1 [Compound 77, (3aR,5s,6aS)-2-((6-oxaspiro[2.5]octan-1-yl)methyl-d2)-N-(6-(2,3,5-trifluorophenyl)pyridazin-3-yl)octahydrocyclopenta[c]pyrrol-5-amine]
2	1.2	[2H]C([2H])(C1CCCOCC1)N1C[C@H]2C[C@H](Nc3ccc(-c4cc(F)cc(F)c4F)nn3)C[C@H]2C1 (stereo partly drawn) [Compound 78, (3aR,5s,6aS)-2-(oxepan-4-ylmethyl-d2)-N-(6-(2,3,5-trifluorophenyl)pyridazin-3-yl)octahydrocyclopenta[c]pyrrol-5-amine]
